# From patent US11524968B2, “Heterocyclic compound as a protein kinase inhibitor” (HK inno.N Corporation, priority 2017, dated 2022)
# Target: JAK1 (Homo sapiens (Human), UniProt P23458)
# Experiment: Analysis of JAK1 activity inhibition ability (ADP-Glo Kinase Assay)
# Assay type: biochemical
# Details: JAK1 enzyme, ADP-Glo luminescence, ATP 250 uM, IRS-itide substrate, 30° C. 40 minutes; read-out: IC50
# Protocol: Test Example 1: Analysis of JAK1 Activity Inhibition Ability of Compound of Formula 1 (ADP-Glo™ Kinase Assay)
# A JAK inhibition ability of a compound according to the present invention was identified as follows.
# A control material and a test material were prepared for each concentration, in such a way that they were diluted by means of DMSO. At the same time, ATP (250 uM) and JAK substrate (JAK1, IRS-itide 40 ng/mL) were prepared, in such a way that they were diluted by means of kinase buffer (40 mM Tris-HCl pH 7.5, 20 mM MgCl2, 0.5 mg/mL BSA, 50 uM DTT).
# A test drug for each concentration, substrate, ATP and JAK enzyme were mixed in an eppendorf tube, and reacted in a 30° C. incubator for 40 minutes.
# ADP-Glo™ reagent contained in ADP-Glo™ Kinase Enzyme System (Promega, USA, V9571) was added into each eppendorf tube, and reacted in a 30° C. incubator for 40 minutes. A kinase detection reagent contained in ADP-Go™ Kinase Enzyme System was inserted into the eppendorf tube, then an integration time was set to 1 second by using Wallac Victor 2™, then luminescence was measured, and then JAKs phosphorylation inhibition ability of the test material was analyzed. The concentration of the compound, which causes 50% of the JAK enzyme activity inhibition in comparison With the control group, was determined as IC50 (nM) of an inhibitor, wherein the results thereof are shown in a following table 1.
# Chain of JAK1 (P23458 whole entry): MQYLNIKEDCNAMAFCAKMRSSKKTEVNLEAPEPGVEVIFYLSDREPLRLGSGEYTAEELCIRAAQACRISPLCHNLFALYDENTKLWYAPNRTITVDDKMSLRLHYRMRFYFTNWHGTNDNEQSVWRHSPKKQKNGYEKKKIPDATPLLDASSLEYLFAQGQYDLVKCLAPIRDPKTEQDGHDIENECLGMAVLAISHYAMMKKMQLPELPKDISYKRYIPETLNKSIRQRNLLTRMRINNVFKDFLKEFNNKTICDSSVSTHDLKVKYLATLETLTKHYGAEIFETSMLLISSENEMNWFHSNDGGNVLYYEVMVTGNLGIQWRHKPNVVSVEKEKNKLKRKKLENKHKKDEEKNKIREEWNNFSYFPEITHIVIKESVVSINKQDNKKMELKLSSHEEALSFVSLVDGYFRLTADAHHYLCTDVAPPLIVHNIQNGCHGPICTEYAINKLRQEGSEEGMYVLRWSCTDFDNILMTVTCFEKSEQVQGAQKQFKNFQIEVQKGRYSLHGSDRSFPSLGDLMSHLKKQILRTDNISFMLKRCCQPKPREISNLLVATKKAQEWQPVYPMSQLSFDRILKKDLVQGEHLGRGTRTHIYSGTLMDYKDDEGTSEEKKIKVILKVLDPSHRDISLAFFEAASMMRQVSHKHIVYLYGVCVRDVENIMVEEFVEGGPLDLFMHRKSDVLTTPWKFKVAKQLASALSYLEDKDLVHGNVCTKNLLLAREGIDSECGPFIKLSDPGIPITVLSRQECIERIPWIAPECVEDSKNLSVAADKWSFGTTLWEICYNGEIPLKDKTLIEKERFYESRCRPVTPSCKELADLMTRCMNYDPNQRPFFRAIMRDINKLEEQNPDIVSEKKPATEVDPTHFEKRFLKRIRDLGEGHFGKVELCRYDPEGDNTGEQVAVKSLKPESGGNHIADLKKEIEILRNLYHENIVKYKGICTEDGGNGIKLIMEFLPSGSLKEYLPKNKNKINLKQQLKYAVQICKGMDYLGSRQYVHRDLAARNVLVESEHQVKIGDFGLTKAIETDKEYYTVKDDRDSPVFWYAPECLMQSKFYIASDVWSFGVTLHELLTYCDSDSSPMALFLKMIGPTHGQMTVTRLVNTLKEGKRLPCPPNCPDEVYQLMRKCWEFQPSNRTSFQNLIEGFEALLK
row,IC50,Structure (SMILES)
1,< 20 nM,"N#C[C@H]1CC1C(=O)N1CC=C(c2cc(NC(=O)C3CC3)nc3[nH]ccc23)CC1 (stereo in doubt) [Example 267, N-(4-(1-((1S,2S)-2-cyanocyclopropane-1-carbonyl)-1,2,3,6-tetrahydropyridin-4-yl)-1H-pyrrolo[2,3-b]pyridin-6-yl)cyclopropanecarboxamide]"
2,20 to 200 nM,"CC1CN(C(=O)CC#N)CC=C1c1cc(NC(=O)C2CC2)nc2[nH]ccc12 (stereo in doubt) [Example 305, (R)—N-(4-(1-(2-cyanoacetyl)-3-methyl-1,2,3,6-tetrahydropyridin-4-yl)-1H-pyrrolo[2,3-b]pyridin-6-yl)cyclopropanecarboxamide]"
3,< 20 nM,"CCC1CC(c2cc(NC(=O)C3CC3)nc3[nH]ccc23)=CCN1C(=O)CC#N (stereo in doubt) [Example 417, (R)—N-(4-(1-(2-cyanoacetyl)-2-ethyl-1,2,3,6-tetrahydropyridin-4-yl)-1H-pyrrolo[2,3-b]pyridin-6-yl)cyclopropanecarboxamide]"
4,< 20 nM,"CC(C)Oc1ccc(S(=O)(=O)Nc2ccc(-c3cc(NC(=O)C4CC4)nc4[nH]ccc34)cc2)cc1 [Example 19, N-(4-(4-((4-isopropoxyphenyl)sulfonamido)phenyl)-1H-pyrrolo[2,3-b]pyridin-6-yl)cyclopropanecarboxamide]"
5,20 to 200 nM,"O=C(Nc1cc(-c2ccc(NS(=O)(=O)c3ccc(Br)cc3)cc2)c2cc[nH]c2n1)C1CC1 [Example 20, N-(4-(4-((4-bromophenyl)sulfonamido)phenyl)-1H-pyrrolo[2,3-b]pyridin-6-yl)cyclopropanecarboxamide]"
6,20 to 200 nM,"N#Cc1ccc(S(=O)(=O)Nc2ccc(-c3cc(NC(=O)C4CC4)nc4[nH]ccc34)cc2)cc1 [Example 21, N-(4-(4-((4-cyanophenyl)sulfonamido)phenyl)-1H-pyrrolo[2,3-b]pyridin-6-yl)cyclopropanecarboxamide]"
7,20 to 200 nM,"O=C(Nc1cc(-c2ccc(NS(=O)(=O)c3ccc4c(c3)CCO4)cc2)c2cc[nH]c2n1)C1CC1 [Example 22, N-(4-(4-((2,3-dihydrobenzofuran)-5-sulfonamido)phenyl)-1H-pyrrolo[2,3-b]pyridin-6-yl)cyclopropanecarboxamide]"
8,< 20 nM,"COc1ccc(S(=O)(=O)Nc2ccc(-c3cc(NC(=O)C4CC4)nc4[nH]ccc34)cc2)cn1 [Example 23, N-(4-(4-((6-methoxypyridine)-3-sulfonamido)phenyl)-1H-pyrrolo[2,3-b]pyridin-6-yl)cyclopropanecarboxamide]"
9,< 20 nM,"O=C(Nc1cc(-c2ccc(NS(=O)(=O)c3ccccc3)cc2)c2cc[nH]c2n1)C1CC1 [Example 24, N-(4-(4-(phenylsulfonamido)phenyl)-1H-pyrrolo[2,3-b]pyridin-6-yl)cyclopropanecarboxamide]"
10,< 20 nM,"O=C(Nc1cc(-c2ccc(NS(=O)(=O)c3cccc(F)c3)cc2)c2cc[nH]c2n1)C1CC1 [Example 25, N-(4-(4-((3-fluorophenyl)sulfonamido)phenyl)-1H-pyrrolo[2,3-b]pyridin-6-yl)cyclopropanecarboxamide]"
11,20 to 200 nM,"O=C(Nc1cc(-c2ccc(NS(=O)(=O)c3cccc(Cl)c3)cc2)c2cc[nH]c2n1)C1CC1 [Example 26, N-(4-(4-((3-chlorophenyl)sulfonamido)phenyl)-1H-pyrrolo[2,3-b]pyridin-6-yl)cyclopropanecarboxamide]"
12,20 to 200 nM,"Cc1ccc(S(=O)(=O)Nc2ccc(-c3cc(NC(=O)C4CC4)nc4[nH]ccc34)cc2)cc1 [Example 27, N-(4-(4-((4-methylphenyl)sulfonamido)phenyl)-1H-pyrrolo[2,3-b]pyridin-6-yl)cyclopropanecarboxamide]"
13,20 to 200 nM,"CSc1ccc(S(=O)(=O)Nc2ccc(-c3cc(NC(=O)C4CC4)nc4[nH]ccc34)cc2)cc1 [Example 28, N-(4-(4-((4-(methylthio)phenyl)sulfonamido)phenyl)-1H-pyrrolo[2,3-b]pyridin-6-yl)cyclopropanecarboxamide]"

# Second part, the molecule before the results:
row,Structure (SMILES),IC50
1,"CCS(=O)(=O)Nc1ccc(-c2cc(NC(=O)C3CC3)nc3[nH]ccc23)cc1F [Example 1, N-(4-(4-(ethylsulfonamido)-3-fluorophenyl)-1H-pyrrolo[2,3-b]pyridin-6-yl)cyclopropanecarboxamide]",< 20 nM
2,"O=C(Nc1cc(-c2ccc(NS(=O)(=O)c3ccc(F)c(F)c3)cc2)c2cc[nH]c2n1)C1CC1 [Example 2, N-(4-(4-((3,4-difluorophenyl)sulfonamido)phenyl)-1H-pyrrolo[2,3-b]pyridin-6-yl)cyclopropanecarboxamide]",< 20 nM
3,"O=C(Nc1cc(-c2ccc(NS(=O)(=O)CCCF)cc2)c2cc[nH]c2n1)C1CC1 [Example 3, N-(4-(4-((3-fluoropropyl)sulfonamido)phenyl)-1H-pyrrolo[2,3-b]pyridin-6-yl)cyclopropanecarboxamide]",< 20 nM
4,"CCS(=O)(=O)Nc1ccc(-c2cc(NC(=O)C3CC3)nc3[nH]ccc23)cc1 [Example 4, N-(4-(4-(ethylsulfonamido)phenyl)-1H-pyrrolo[2,3-b]pyridin-6-yl)cyclopropanecarboxamide]",< 20 nM
5,"CCCS(=O)(=O)Nc1ccc(-c2cc(NC(=O)C3CC3)nc3[nH]ccc23)cc1 [Example 5, N-(4-(4-(propylsulfonamido)phenyl)-1H-pyrrolo[2,3-b]pyridin-6-yl)cyclopropanecarboxamide]",< 20 nM
6,"CCCCS(=O)(=O)Nc1ccc(-c2cc(NC(=O)C3CC3)nc3[nH]ccc23)cc1 [Example 6, N-(4-(4-(butylsulfonamido)phenyl)-1H-pyrrolo[2,3-b]pyridin-6-yl)cyclopropanecarboxamide]",< 20 nM
7,"O=C(Nc1cc(-c2ccc(NS(=O)(=O)C3CCCCC3)cc2)c2cc[nH]c2n1)C1CC1 [Example 7, N-(4-(4-(cyclohexanesulfonamido)phenyl)-1H-pyrrolo[2,3-b]pyridin-6-yl)cyclopropanecarboxamide]",< 20 nM
8,"O=C(Nc1cc(-c2ccc(NS(=O)(=O)CCF)cc2)c2cc[nH]c2n1)C1CC1 [Example 8, N-(4-(4-((2-fluoroethyl)sulfonamido)phenyl)-1H-pyrrolo[2,3-b]pyridin-6-yl)cyclopropanecarboxamide]",20 to 200 nM
9,"O=C(Nc1cc(-c2ccc(NS(=O)(=O)C3CCS(=O)(=O)CC3)cc2)c2cc[nH]c2n1)C1CC1 [Example 9, N-(4-(4-((1,1-dioxidotetrahydro-2H-thiopyran)-4-sulfonamido)phenyl)-1H-pyrrolo[2,3-b]pyridin-6-yl)cyclopropanecarboxamide]",< 20 nM
10,"O=C(Nc1cc(-c2ccc(NS(=O)(=O)C3CCS(=O)(=O)C3)cc2)c2cc[nH]c2n1)C1CC1 (stereo not shown) [Example 10, N-(4-(4-((1,1-dioxidotetrahydrothiophene)-3-sulfonamido)phenyl)-1H-pyrrolo[2,3-b]pyridin-6-yl)cyclopropanecarboxamide]",< 20 nM
11,"O=C(Nc1cc(-c2ccc(NS(=O)(=O)C3CS(=O)(=O)C3)cc2)c2cc[nH]c2n1)C1CC1 [Example 11, N-(4-(4-((1,1-dioxidothietane)-3-sulfonamido)phenyl)-1H-pyrrolo[2,3-b]pyridin-6-yl)cyclopropanecarboxamide]",< 20 nM
12,"O=C(Nc1cc(-c2ccc(NS(=O)(=O)c3ccc(Cl)nc3)cc2)c2cc[nH]c2n1)C1CC1 [Example 12, N-(4-(4-((6-chloropyridine)-3-sulfonamido)phenyl)-1H-pyrrolo[2,3-b]pyridin-6-yl)cyclopropanecarboxamide]",< 20 nM
13,"O=C(Nc1cc(-c2ccc(NS(=O)(=O)c3ccc(F)cc3)cc2)c2cc[nH]c2n1)C1CC1 [Example 13, N-(4-(4-((4-fluorophenyl)sulfonamido)phenyl)-1H-pyrrolo[2,3-b]pyridin-6-yl)cyclopropanecarboxamide]",< 20 nM
14,"O=C(Nc1cc(-c2ccc(NS(=O)(=O)c3ccc(Cl)cc3)cc2)c2cc[nH]c2n1)C1CC1 [Example 14, N-(4-(4-((4-chlorophenyl)sulfonamido)phenyl)-1H-pyrrolo[2,3-b]pyridin-6-yl)cyclopropanecarboxamide]",< 20 nM
15,"Cn1cncc1S(=O)(=O)Nc1ccc(-c2cc(NC(=O)C3CC3)nc3[nH]ccc23)cc1 [Example 15, N-(4-(4-((1-methyl-1H-imidazole)-5-sulfonamido)phenyl)-1H-pyrrolo[2,3-b]pyridin-6-yl)cyclopropanecarboxamide]",20 to 200 nM
16,"Cn1cc(S(=O)(=O)Nc2ccc(-c3cc(NC(=O)C4CC4)nc4[nH]ccc34)cc2)cn1 [Example 16, N-(4-(4-((1-methyl-1H-pyrazole)-4-sulfonamido)phenyl)-1H-pyrrolo[2,3-b]pyridin-6-yl)cyclopropanecarboxamide]",20 to 200 nM
17,"NC(=O)c1ccc(S(=O)(=O)Nc2ccc(-c3cc(NC(=O)C4CC4)nc4[nH]ccc34)cc2)cc1 [Example 17, 4-(N-(4-(6-(cyclopropanecarboxamido)-1H-pyrrolo[2,3-b]pyridin-4-yl)phenyl)sulfamoyl)benzamide]",20 to 200 nM
18,"CC(=O)N1CCC(S(=O)(=O)Nc2ccc(-c3cc(NC(=O)C4CC4)nc4[nH]ccc34)cc2)CC1 [Example 18, N-(4-(4-((1-acetylpiperidine)-4-sulfonamido)phenyl)-1H-pyrrolo[2,3-b]pyridin-6-yl)cyclopropanecarboxamide]",20 to 200 nM
